Measured values: the supplement of paper PMC10307832

Legend:
Test in all cases: relative viability (nuclei count vs DMSO), 5 days (fraction); higher = more cells survive
BEN = system: BEN
How it was run: (§1)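 Relative viability is defined as nuclei in treated wells over nuclei in vehicle wells. Duplicate plates were run and medians reported. Lung cancer cell lines in 1536-well plates were dosed by pin tool one day after seeding, with one drug or with a fixed anchor-drug dose plus five library-drug doses (not always all listed) in √10 steps, and nuclei were counted after 5 days.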

ChaGo-K-1 = system: ChaGo-K-1
How it was run: as §1

HCC-15 = system: HCC-15
How it was run: as §1

LC-2-ad = system: LC-2-ad
How it was run: as §1

LCLC-97TM1 = system: LCLC-97TM1
How it was run: as §1

LK-2 = system: LK-2
How it was run: as §1

LU99A = system: LU99A
How it was run: as §1

LXF-289 = system: LXF-289
How it was run: as §1

NCI-H1651 = system: NCI-H1651
How it was run: as §1

NCI-H1666 = system: NCI-H1666
How it was run: as §1

NCI-H1944 = system: NCI-H1944
How it was run: as §1

NCI-H2087 = system: NCI-H2087
How it was run: as §1

NCI-H2342 = system: NCI-H2342
How it was run: as §1

NCI-H322M = system: NCI-H322M
How it was run: as §1

NCI-H358 = system: NCI-H358
How it was run: as §1

NCI-H596 = system: NCI-H596
How it was run: as §1

NCI-H650 = system: NCI-H650
How it was run: as §1

NCI-H661 = system: NCI-H661
How it was run: as §1

NCI-H838 = system: NCI-H838
How it was run: as §1

PC-3 [JPC-3] = system: PC-3 [JPC-3]
How it was run: as §1

SK-MES-1 = system: SK-MES-1
How it was run: as §1

UMC-11 = system: UMC-11
How it was run: as §1

NC(=O)Nc1cc(-c2cccc(F)c2)sc1C(=O)N[C@H]1CCCNC1 [AZD7762] + CCNC(=O)c1noc(-c2cc(C(C)C)c(O)cc2O)c1-c1ccc(CN2CCOCC2)cc1 [Luminespib] (partner 0.01 µM)
relative viability (BEN; first compound 0.01 µM): 0.16 | relative viability (BEN; first compound 0.03162 µM): 0.665 | relative viability (BEN; first compound 0.1 µM): 0.188 | relative viability (BEN; first compound 0.3162 µM): 0.43 | relative viability (BEN; first compound 1 µM): 0.533 | relative viability (ChaGo-K-1; first compound 0.01 µM): 0.601 | relative viability (ChaGo-K-1; first compound 0.03162 µM): 0.578 | relative viability (ChaGo-K-1; first compound 0.1 µM): 0.692 | relative viability (ChaGo-K-1; first compound 0.3162 µM): 0.513 | relative viability (ChaGo-K-1; first compound 1 µM): 0.354 | relative viability (HCC-15; first compound 0.01 µM): 0.309 | relative viability (HCC-15; first compound 0.03162 µM): 0.304 | relative viability (HCC-15; first compound 0.1 µM): 0.234 | relative viability (HCC-15; first compound 0.3162 µM): 0.163 | relative viability (HCC-15; first compound 1 µM): 0.315 | relative viability (LC-2-ad; first compound 0.01 µM): 1.27 | relative viability (LC-2-ad; first compound 0.03162 µM): 1.09 | relative viability (LC-2-ad; first compound 0.1 µM): 1.05 | relative viability (LC-2-ad; first compound 0.3162 µM): 0.991 | relative viability (LC-2-ad; first compound 1 µM): 0.646 | relative viability (LCLC-97TM1; first compound 0.01 µM): 0.876 | relative viability (LCLC-97TM1; first compound 0.03162 µM): 0.706 | relative viability (LCLC-97TM1; first compound 0.1 µM): 0.738 | relative viability (LCLC-97TM1; first compound 0.3162 µM): 0.771 | relative viability (LCLC-97TM1; first compound 1 µM): 0.786 | relative viability (LK-2; first compound 0.01 µM): 0.198 | relative viability (LK-2; first compound 0.03162 µM): 0.155 | relative viability (LK-2; first compound 0.1 µM): 0.215 | relative viability (LK-2; first compound 0.3162 µM): 0.164 | relative viability (LK-2; first compound 1 µM): 0.167 | relative viability (LU99A; first compound 0.01 µM): 0.255 | relative viability (LU99A; first compound 0.03162 µM): 0.265 | relative viability (LU99A; first compound 0.1 µM): 0.357 | relative viability (LU99A; first compound 0.3162 µM): 0.201 | relative viability (LU99A; first compound 1 µM): 0.207 | relative viability (LXF-289; first compound 0.01 µM): 0.673 | relative viability (LXF-289; first compound 0.03162 µM): 0.601 | relative viability (LXF-289; first compound 0.1 µM): 0.753 | relative viability (LXF-289; first compound 0.3162 µM): 0.724 | relative viability (LXF-289; first compound 1 µM): 0.456 | relative viability (NCI-H1651; first compound 0.01 µM): 0.98 | relative viability (NCI-H1651; first compound 0.03162 µM): 0.872 | relative viability (NCI-H1651; first compound 0.1 µM): 0.802 | relative viability (NCI-H1651; first compound 0.3162 µM): 0.487 | relative viability (NCI-H1651; first compound 1 µM): 0.215 | relative viability (NCI-H1666; first compound 0.01 µM): 1.11 | relative viability (NCI-H1666; first compound 0.03162 µM): 1.07 | relative viability (NCI-H1666; first compound 0.1 µM): 1.18 | relative viability (NCI-H1666; first compound 0.3162 µM): 1.03 | relative viability (NCI-H1666; first compound 1 µM): 0.97 | relative viability (NCI-H1944; first compound 0.01 µM): 0.85 | relative viability (NCI-H1944; first compound 0.03162 µM): 0.838 | relative viability (NCI-H1944; first compound 0.1 µM): 0.871 | relative viability (NCI-H1944; first compound 0.3162 µM): 0.82 | relative viability (NCI-H1944; first compound 1 µM): 0.689 | relative viability (NCI-H2087; first compound 0.01 µM): 0.203 | relative viability (NCI-H2087; first compound 0.03162 µM): 0.145 | relative viability (NCI-H2087; first compound 0.1 µM): 0.237 | relative viability (NCI-H2087; first compound 0.3162 µM): 0.173 | relative viability (NCI-H2087; first compound 1 µM): 0.162 | relative viability (NCI-H2342; first compound 0.01 µM): 0.69 | relative viability (NCI-H2342; first compound 0.03162 µM): 0.696 | relative viability (NCI-H2342; first compound 0.1 µM): 0.731 | relative viability (NCI-H2342; first compound 0.3162 µM): 0.819 | relative viability (NCI-H2342; first compound 1 µM): 0.676 | relative viability (NCI-H322M; first compound 0.01 µM): 0.851 | relative viability (NCI-H322M; first compound 0.03162 µM): 0.827 | relative viability (NCI-H322M; first compound 0.1 µM): 0.357 | relative viability (NCI-H322M; first compound 0.3162 µM): 0.248 | relative viability (NCI-H322M; first compound 1 µM): 0.245 | relative viability (NCI-H358; first compound 0.01 µM): 0.275 | relative viability (NCI-H358; first compound 0.03162 µM): 0.292 | relative viability (NCI-H358; first compound 0.1 µM): 0.307 | relative viability (NCI-H358; first compound 0.3162 µM): 0.545 | relative viability (NCI-H358; first compound 1 µM): 0.142 | relative viability (NCI-H596; first compound 0.01 µM): 0.985 | relative viability (NCI-H596; first compound 0.03162 µM): 1.02 | relative viability (NCI-H596; first compound 0.1 µM): 0.999 | relative viability (NCI-H596; first compound 0.3162 µM): 1.07 | relative viability (NCI-H596; first compound 1 µM): 1.03 | relative viability (NCI-H650; first compound 0.01 µM): 0.801 | relative viability (NCI-H650; first compound 0.03162 µM): 0.728 | relative viability (NCI-H650; first compound 0.1 µM): 0.763 | relative viability (NCI-H650; first compound 0.3162 µM): 0.641 | relative viability (NCI-H650; first compound 1 µM): 0.458 | relative viability (NCI-H661; first compound 0.01 µM): 1.01 | relative viability (NCI-H661; first compound 0.03162 µM): 1 | relative viability (NCI-H661; first compound 0.1 µM): 1.02 | relative viability (NCI-H661; first compound 0.3162 µM): 0.971 | relative viability (NCI-H661; first compound 1 µM): 0.417 | relative viability (NCI-H838; first compound 0.01 µM): 0.277 | relative viability (NCI-H838; first compound 0.03162 µM): 0.336 | relative viability (NCI-H838; first compound 0.1 µM): 0.199 | relative viability (NCI-H838; first compound 0.3162 µM): 0.157 | relative viability (NCI-H838; first compound 1 µM): 0.174 | relative viability (PC-3 [JPC-3]; first compound 0.01 µM): 0.735 | relative viability (PC-3 [JPC-3]; first compound 0.03162 µM): 0.67 | relative viability (PC-3 [JPC-3]; first compound 0.1 µM): 0.702 | relative viability (PC-3 [JPC-3]; first compound 0.3162 µM): 0.713 | relative viability (PC-3 [JPC-3]; first compound 1 µM): 0.673 | relative viability (SK-MES-1; first compound 0.01 µM): 1.08 | relative viability (SK-MES-1; first compound 0.03162 µM): 0.715 | relative viability (SK-MES-1; first compound 0.1 µM): 0.38 | relative viability (SK-MES-1; first compound 0.3162 µM): 0.19 | relative viability (SK-MES-1; first compound 1 µM): 0.175 | relative viability (UMC-11; first compound 0.01 µM): 1.14 | relative viability (UMC-11; first compound 0.03162 µM): 0.999 | relative viability (UMC-11; first compound 0.1 µM): 1.09 | relative viability (UMC-11; first compound 0.3162 µM): 0.593 | relative viability (UMC-11; first compound 1 µM): 0.384
